According to patent publication US20260069541A1, “COMPOSITIONS AND METHODS FOR THE DELIVERY OF ACTIVE AGENTS INCLUDING NUCLEIC ACIDS” (Ohio State Innovation Foundation, priority 2022, published 2026):

Tests used:
[1] = system: FLuc mRNA expression in HEK293, A549, and KB; assay: In vitro bioluminescent assay, FLuc mRNA delivery (Example 1); assay type: cell-based; conditions: comparison of ionizable lipids (FIG. 1D) and helper lipids (FIG. 1E)
Method: In Vitro Bioluminescent Assay. HEK293, A549, and KB were seeded at 3000 cells/well in 96-well plates 24 hours prior to treatments. Cells were treated with 0.1 ug of FLuc mRNA in QTsome Original or QTPlus. Cells were allowed to uptake QTsome Original or QTPlus encapsulating mRNA overnight. The mRNA expression was determined by Bright-Glo™ Luciferase Assay System (Promega, Madison, WI).

A549 cells [2] = assay: Colony formation assay; assay type: cell-based; conditions: up to 1 week
Method: Colony Formation Assay. A549 cells were seeded at 100 cells/well in 24-well plates 24 hours prior to treatments. Cells were treated with 16-mer and 20-mer AM21 in free solution and QTPlus at concentrations of 1 uM and 10 uM. Cells were allowed to form colony for up to 1-week followed with fixation by methanol and colony detection by crystal violet.

miR-21 = assay: In vitro gene regulation, RT-qPCR of miR-21 downstream genes; assay type: cell-based; conditions: KB and A549 cells; free solution, QTsome Original or QTPlus
Method: In Vitro Gene Regulation. KB, A549, THP-1, MC38, and RAW264.7 cells were seeded at 3×10^5 cells/well in 6-well plates 24 hours prior to treatments. Cells were treated with scramble oligonucleotide or AM21 in free solution, lipofectamine, QTsome Original, and QTPlus. Total RNA was extracted using TRI reagent (Zymo Research) per manufacturer protocol. cDNA was prepared by high-capacity cDNA reverse transcription kit (Invitrogen, Waltham, MA, USA), and real-time qPCR (RT-qPCR) was done using SsoAdvanced™ Universal SYBR® Green Supermix (Bio-Rad Laboratories, Hercules, CA) on a QuantStudio 7 Flex Real-time PCR System. All the RT-qPCR primers were purchased from Sigma-Aldrich. Beta-actin (Actb) was selected as the housekeeping gene control. The relative amount of RNA level was calculated and compared according to the 2-ΔΔCt method.

A549 cells [3] = assay: MTS assay, cell viability and synergy with erlotinib (CompuSyn); assay type: cell-based; conditions: fixed-ratio combination of QTPlus-AM21 and erlotinib
Method: MTS Assay. A549 cells were seeded at 3000 cells/well in 96-well plates 25 hours before treatments. […] After 72-hour treatment, cell viability was examined by CellTiter 96® AQueous One Solution (Promega, Madison, WI) per manufacturer protocol.

[4] = system: A549 xenograft mouse model; assay: In vivo antitumor efficacy of QTPlus-AM21 and erlotinib, A549 xenograft; set-up: species or system nude mice; conditions: A549 xenograft mice, individually or in combination
Method: Treatments were initiated once tumors reached 50-100 mm^3. […] All mice were dosed every 3 days for 5 doses. Tumor growth and body weight were monitored, and the tumor volumes were calculated according to the formula: All animal studies were reviewed and approved by The Ohio State University Institutional Laboratory Animal Care and Use Committee (IACUC). All mice were euthanized one day after the last dose to peak the immune activation and protein expression in TME.

[5] = TNS fluorescence assay, apparent pKa; assay type: physicochemical; conditions: helper lipid in QTsome+, same % of DOTAP
Method: To evaluate the apparent pKa of the lipid QTsome+ nanoparticles including different combinations of lipids, 2-(p-toluidino) naphthalene-6-sulfonic acid (TNS) fluorescence assay was designed. TNS binds to positively charged lipids through electrostatic interactions and emits strong fluorescence upon excitation. A series of universal buffers (a combination of 10 mM NaCitrate, 10 mM NaPhasphate, 10 mM NaBorate, and 150 mM NaCl) with pH ranging from 3 to 12 was prepared. QTsome+ were diluted in these buffers at the final ionizable lipid (including SM-102, A066, DODMA and DOTAP) concentration of 75 μM. TNS was then added to the final concentration at 6.0 μM. pH was measured after thorough mixing of TNS and QTsome+ using a pH meter. TNS Fluorescence was obtained by transferring 200 μL of samples into a black-opaque plate in triplicate, and reading using a SpectraMax M5 plate reader with the excitation (λex) at 325 nm and the emission (Nem) at 435 nm. It was assumed that in the presence of amino lipids, TNS fluorescence reaches a maximum when 100% of the amino lipids are ionized, while TNS has little fluorescence when the amino lipids are in the un-ionized state. […]
Where FL is TNS fluorescence value, pKa is apparent pKa of the amino lipids, b is the measure of the cooperativeness of the protonation process of […].

[6] = system: MC38 murine colorectal syngeneic model; assay: In vivo antitumor efficacy, MC38 syngeneic model; set-up: species or system C57BL/6 mice; conditions: MC38 syngeneic mice, individually or in combination
Method: To evaluate the combination therapy of QTPlus-AM21 and anti-PDL I therapy, MC38 murine colorectal syngeneic model was generated by subcutaneously inoculating C57BL/6 mice (obtained from Charles River Laboratories) with 1×10^6 cells per mouse on the right flack. Treatments were initiated once tumors reached 50-100 mm^3. Mice (n=5) were intraperitoneally treated with saline, 3 mg/kg QTPlus-encapsulating scramble oligonucleotide, 3 mg/kg QTPlus-AM21, 10 mg/kg atezolizumab, and QTPlus-AM21/atezolizumab combination (3 mg/kg QTPlus-AM21 and 10 mg/kg atezolizumab).
All mice were dosed every 3 days for 5 doses. Tumor growth and body weight were monitored, and the tumor volumes were calculated according to the formula: […]
All animal studies were reviewed and approved by The Ohio State University Institutional Laboratory Animal Care and Use Committee (IACUC). All mice were euthanized one day after the last dose to peak the immune activation and protein expression in TME. Terminal Tumor growth inhibition (% TGI) was determined by the formula: […]
Flow Cytometry. […] Stained cells were analyzed using an LSR II flow cytometer in Flow Cytometry Shared Resources (FCSR) at The Ohio State University Comprehensive Cancer Center.

HEK293T cells = assay: Bright-Glo luciferase assay, FFLuc mRNA delivery by QTsome+ (Example 2); assay type: cell-based; conditions: 10,000 HEK293T cells, 100 ng FFLuc mRNA, overnight
Method: To examine the delivery efficiency of QTsome+ lipid nanoparticles, FFLuc mRNA was selected as the reporter gene of interest to be encapsulated into different QTsome+ formulations. Bioluminescence intensity was measured by Bright-Glo luciferase kit used as the quantification of expressed firefly luciferase after mRNA transfection. We treated 10,000 HEK293T cells overnight with 100 ng FFLuc mRNA utilizing different formulations with lipofectamine 3000 as the positive control. […] Therefore, the follow-on samples were formulated at room temperature instead of 65° C. or 37° C.

FFLuc mRNA expression = assay: In vivo mRNA expression after IM injection (IVIS bioluminescence); set-up: species or system ICR CD-1 Swiss mice; conditions: 1.5 μg per leg, two rounds combined, helper lipid in QTsome+
Source text: ICR CD-1 Swiss mice were purchased from Charles River Laboratory Animals were housed in a temperature-controlled room under a 12 hr light/12 hr dark cycle and fed normal chow diet. All animal studies were reviewed and approved by the Ohio State University Institutional Laboratory Animal Care and Use Committee. Both male and female mice were used for experiments. In vivo mRNA expression was quantified by measuring firefly luciferase bioluminescence. Mice treated with IM injection of FFLuc mRNA lipid QTsome+ nanoparticles at 1.5 μg per leg were injected with luciferin intraperitonially 5 minutes prior to bioluminescence measurements. Bioluminescence images were taken by a in vivo imaging system (IVIS) under optimal exposure settings.

Compound: CCCCC/C=C\C/C=C\CCCCCCCCOCC(CN1CCCC1)OCCCCCCCC/C=C\C/C=C\CCCCC (centres unmarked) [A-066, 1-(2,3-bis(((9Z,12Z)-octadeca-9,12-dien-1-yl)oxy)propyl)pyrrolidine]
- mRNA delivery efficiency of QTPlus with different components [1]: the most suitable for mRNA delivery in QTsome platform

Compound: 5′-A*+T*+C*A*G*+T*+C*+T*G*A*+T*A*A*G*+C*+T-3′ (ATCAGTCTGATAAGCT; chemistry not given here) [AM21]
- Inhibition of colony formation / A549 cell growth (A549 cells [2]): superior in inhibiting A549 cell growth in vitro
- miR-21 downstream gene regulation (miR-21): Akt1 downregulation, Ddah1 upregulation, and Pdl1 upregulation

Compound: C#Cc1cccc(Nc2ncnc3cc(OCCOC)c(OCCOC)cc23)c1 [erlotinib, Erlotinib]
- Dose reduction index (DRI) (A549 cells [3]): 2.26
- Body weight [4]: No significant differences in body weight

Compound: CCCCCCCCCCCCCCCCCC(=O)OC[C@H](COP(=O)([O-])OCC[N+](C)(C)C)OC(=O)CCCCCCCCCCCCCCCCC [DSPC, distearoylphosphatidylcholine]
- Apparent pKa [5]: lowest pKa among all

Compound: atezolizumab: an anti-PDL1 therapy, monoclonal antibody
- Body weight [6]: No significant differences in body weight

Compound: CCCCCCCC/C=C\CCCCCCCC(=O)OC[C@H](COP(=O)(O)OCCN)OC(=O)CCCCCCC/C=C\CCCCCCCC [DOPE, 1,2-dioleoyl-sn-glycero-3-phosphoethanolamine]
- Bioluminescence intensity (mRNA delivery efficiency) (HEK293T cells): outperformed DOPC and DSPC
- In vivo delivery efficiency (FLuc expression) (FFLuc mRNA expression): rather outperformed PC-based helper lipids
- mRNA delivery efficiency of QTPlus with different components [1]: the most suitable as helper lipids

Compound: CCCCC/C=C\C/C=C\CCCCCCCCC(CCCCCCCC/C=C\C/C=C\CCCCC)OC(=O)CCCN(C)C [MC3, dilinoleylmethyl-4-dimethylaminobutyrate, reference compound]
- Bioluminescence intensity (mRNA delivery efficiency) (HEK293T cells): slightly increased the delivery efficiency
